Test results taken from patent US9085576B2 (AMGEN INC., priority 2013, dated 2015).
pIC50: −log10 of the molar value.

Key:
[1] = molecular target: Beta Secretase enzyme (BACE) (Homo sapiens (Human), UniProt P56817); assay: In vitro enzymatic BACE FRET assay; format: biochemical; conditions: read-out: BACE1 Enzyme assay IC50
Method: In Vitro Enzymatic BACE FRET (Fluorescence Resonance Energy Transfer) Assay (Enzyme Assay Data in the Example Table I)
The assay buffer used in this screen is 0.05 M acetate, pH 4.2, 10% DMSO final, 100 uM genapol (which is a nonionic detergent, below its Critical Micelle Concentration). […] This assay is effectively started by the addition of FRET substrate (50 nM) and the combination is incubated for one hour. The FRET assay is terminated with by addition of Tris buffer, which raises the pH to neutrality, and the fluorescence is determined. The FRET substrate is a peptide with commercially available fluorophore and quencher, on opposite sides of the BACE cleavage site.

BACE = BACE (Homo sapiens (Human), UniProt P56817); assay: In vitro BACE cell-based assay (Aβ40 in conditioned medium, sandwich ELISA)
Cathepsin D (Cat D) = Cathepsin D (Cat D) (Homo sapiens (Human), UniProt P07339); assay: In vitro enzymatic Cathepsin D (Cat D) FRET assay; format: biochemical; conditions: read-out: CatD IC50
Cathepsin D (Cat D), sequence (P07339 65-412, species assumed): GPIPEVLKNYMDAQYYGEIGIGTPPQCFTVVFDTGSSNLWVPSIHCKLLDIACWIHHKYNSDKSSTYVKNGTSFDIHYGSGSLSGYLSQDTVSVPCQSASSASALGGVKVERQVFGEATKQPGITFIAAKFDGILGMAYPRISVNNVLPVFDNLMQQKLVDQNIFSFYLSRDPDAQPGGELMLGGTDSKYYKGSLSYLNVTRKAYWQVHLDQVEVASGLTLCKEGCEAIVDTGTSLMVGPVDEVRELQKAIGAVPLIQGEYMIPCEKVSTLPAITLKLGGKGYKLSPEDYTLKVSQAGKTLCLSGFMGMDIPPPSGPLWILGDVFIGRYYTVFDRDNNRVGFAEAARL

BACE, sequence (P56817 46-501, species assumed): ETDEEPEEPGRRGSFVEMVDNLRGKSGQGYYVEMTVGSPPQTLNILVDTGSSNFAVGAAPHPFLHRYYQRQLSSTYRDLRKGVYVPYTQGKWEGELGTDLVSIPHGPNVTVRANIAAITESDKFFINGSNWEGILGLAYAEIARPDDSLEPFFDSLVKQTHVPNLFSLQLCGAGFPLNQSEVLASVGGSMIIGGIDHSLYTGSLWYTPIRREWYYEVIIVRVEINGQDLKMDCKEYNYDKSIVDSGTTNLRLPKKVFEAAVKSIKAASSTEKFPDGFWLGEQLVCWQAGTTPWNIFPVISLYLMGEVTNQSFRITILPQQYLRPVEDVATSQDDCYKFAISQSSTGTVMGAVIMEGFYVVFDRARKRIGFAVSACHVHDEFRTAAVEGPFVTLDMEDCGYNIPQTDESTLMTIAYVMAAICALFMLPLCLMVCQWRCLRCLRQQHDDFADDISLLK
Beta Secretase enzyme (BACE), sequence (P56817 46-501): as the sequence (P56817 46-501, species assumed) above

With `COc1cnc(C(=O)Nc2ccc(F)c([C@@]3(C(F)F)N=C(N)O[C@@H]4C[C@@H]43)c2)c(C)c1` [Example 131, N-(3-((1R,5S,6R)-3-amino-5-(difluoromethyl)-2-oxa-4-azabicyclo[4.1.0]hept-3-en-5-yl)-4-fluorophenyl)-5-methoxy-3-methylpicolinamide] as the compound, how does the pIC50 [1] read?
Its pIC50 is 6.73.

And the IC50 (BACE)?
Its IC50 is 0.0809 µM.

What about the pIC50 (Cathepsin D (Cat D)) of the same compound?
Its pIC50 is 3.47.

Which results are given for `NC1=N[C@@](c2cc(NC(=O)C3=CCCCC3)ccc2F)(C(F)F)[C@H]2C[C@H]2O1` [Example 243, N-(3-((1R,5S,6R)-3-amino-5-(difluoromethyl)-2-oxa-4-azabicyclo[4.1.0]hept-3-en-5-yl)-4-fluorophenyl)cyclohex-1-enecarboxamide]?
pIC50 [1]: 4.61; IC50 (BACE): 4.07 µM; pIC50 (Cathepsin D (Cat D)): 2.99

What does the source list for `Cc1c(C(=O)Nc2ccc(F)c([C@@]3(C(F)F)N=C(N)O[C@@H]4C[C@@H]43)c2)nc2ccc(Cl)cn12` [Example 69]?
pIC50 [1]: 6.90; IC50 (BACE): 0.0372 µM; pIC50 (Cathepsin D (Cat D)): 3.36

`Cc1cc(C(F)(F)F)cnc1C(=O)Nc1cc(F)c(F)c([C@@]2(CF)N=C(N)O[C@@H]3C[C@@H]32)c1` (stereo in doubt) [Example 52] was tested. Which pIC50 [1] did it give?
Its pIC50 is < 4.40.

And the IC50 (BACE)?
Its IC50 is > 15.6 µM.

And the pIC50 (Cathepsin D (Cat D))?
Its pIC50 is 2.79.

`N#Cc1cnc2c(Nc3ccc(F)c([C@@]4(C(F)F)N=C(N)O[C@@H]5C[C@@H]54)c3)ncc(F)c2c1` [Example 352, 8-((3-((1R,5S,6R)-3-amino-5-(difluoromethyl)-2-oxa-4-azabicyclo[4.1.0]hept-3-en-5-yl)-4-fluorophenyl)amino)-5-fluoro-1,7-naphthyridine-3-carbonitrile] was tested. Which pIC50 [1] did it give?
Its pIC50 is 7.41.

And the IC50 (BACE)?
Its IC50 is 0.0593 µM.

What about the pIC50 (Cathepsin D (Cat D)) of the same compound?
Its pIC50 is 3.72.

Which results are given for `COc1cnc(C(=O)Nc2ccc(F)c([C@]3(C(F)F)N=C(N)O[C@H]4C[C@H]43)c2)c(C)n1` [Example 64, N-(3-((1S,5R,6S)-3-amino-5-(difluoromethyl)-2-oxa-4-azabicyclo[4.1.0]hept-3-en-5-yl)-4-fluorophenyl)-5-methoxy-3-methylpyrazine-2-carboxamide]?
pIC50 [1]: 5.21; IC50 (BACE): > 15.6 µM; pIC50 (Cathepsin D (Cat D)): 3.72

`NC1=N[C@@](c2cc(NC(=O)c3cc(Cl)cs3)ccc2F)(C(F)F)[C@H]2C[C@H]2O1` [Example 177, N-(3-((1R,5S,6R)-3-amino-5-(difluoromethyl)-2-oxa-4-azabicyclo[4.1.0]hept-3-en-5-yl)-4-fluorophenyl)-4-chlorothiophene-2-carboxamide] was tested. Which pIC50 [1] did it give?
Its pIC50 is 6.73.

And the IC50 (BACE)?
The IC50 was 0.373 µM.

And the pIC50 (Cathepsin D (Cat D))?
The pIC50 was 3.12.

What does the source list for `Cc1cc(NC(=O)c2ncc(C#N)cc2F)cc([C@@]2(C(F)F)N=C(N)O[C@@H]3C[C@@H]32)c1F` [Example 398, N-(3-((1R,5S,6R)-3-amino-5-(difluoromethyl)-2-oxa-4-azabicyclo[4.1.0]hept-3-en-5-yl)-4-fluoro-5-methylphenyl)-5-cyano-3-fluoropicolinamide]?
pIC50 [1]: 7.47; IC50 (BACE): 0.0123 µM; pIC50 (Cathepsin D (Cat D)): 3.16

What does the source list for `NC1=N[C@@](CF)(c2cc(NC(=O)c3ccc(Cl)cn3)cnc2F)[C@@H]2C[C@@H]2O1` [Example 230, N-(5-((1S,5R,6S)-3-amino-5-(fluoromethyl)-2-oxa-4-azabicyclo[4.1.0]hept-3-en-5-yl)-6-fluoropyridin-3-yl)-5-chloropicolinamide]?
pIC50 [1]: 4.92; IC50 (BACE): 2.23 µM; pIC50 (Cathepsin D (Cat D)): < 3.40

How did the pIC50 [1] turn out when `NC1=N[C@@](c2cc(NC(=O)c3cnc(OCC(F)(F)F)cn3)ccc2F)(C(F)F)[C@H]2C[C@H]2O1` [Example 160, N-(3-((1R,5S,6R)-3-amino-5-(difluoromethyl)-2-oxa-4-azabicyclo[4.1.0]hept-3-en-5-yl)-4-fluorophenyl)-5-(2,2,2-trifluoroethoxy)pyrazine-2-carboxamide] was run?
Its pIC50 is 7.54.

What about the IC50 (BACE) of the same compound?
The IC50 was 0.0808 µM.

And the pIC50 (Cathepsin D (Cat D))?
The pIC50 was 2.70.

What does the source list for `NC1=N[C@](CF)(c2cc(NC(=O)c3ncc(Cl)cc3F)ccc2Cl)[C@H]2C[C@H]2O1` [Example 442, N-(3-((1R,5S,6R)-3-amino-5-(fluoromethyl)-2-oxa-4-azabicyclo[4.1.0]hept-3-en-5-yl)-4-chlorophenyl)-5-chloro-3-fluoropicolinamide]?
pIC50 [1]: 7.26; pIC50 (BACE): 7.87; pIC50 (Cathepsin D (Cat D)): 2.94

`NC1=N[C@@](c2cc(NCC3(C(F)(F)F)CC3)ccc2F)(C(F)F)[C@H]2C[C@H]2O1` [Example 376, (1R,5S,6R)-5-(difluoromethyl)-5-(2-fluoro-5-(((1-(trifluoromethyl)cyclopropyl)methyl)amino)phenyl)-2-oxa-4-azabicyclo[4.1.0]hept-3-en-3-amine] was tested. Which pIC50 [1] did it give?
The pIC50 was 5.68.

And the IC50 (BACE)?
Its IC50 is 1.15 µM.

What about the pIC50 (Cathepsin D (Cat D)) of the same compound?
The pIC50 was 4.28.

With `CC1(C#Cc2ccc(C(=O)Nc3ccc(F)c([C@@]4(C(F)F)N=C(N)O[C@@H]5C[C@@H]54)c3)nc2)COC1` [Example 409, N-(3-((1R,5S,6R)-3-amino-5-(difluoromethyl)-2-oxa-4-azabicyclo[4.1.0]hept-3-en-5-yl)-4-fluorophenyl)-5-((3-methyloxetan-3-yl)ethynyl)picolinamide] as the compound, how does the pIC50 [1] read?
The pIC50 was 6.49.

And the pIC50 (BACE)?
Its pIC50 is 6.29.

And the pIC50 (Cathepsin D (Cat D))?
Its pIC50 is 3.13.

How did the pIC50 [1] turn out when `N#Cc1ccc(C(=O)Nc2cc(Cl)c(F)c([C@@]3(CF)N=C(N)O[C@@H]4C[C@@H]43)c2)nc1` [Example 88, N-(3-((1R,5S,6R)-3-amino-5-(fluoromethyl)-2-oxa-4-azabicyclo[4.1.0]hept-3-en-5-yl)-5-chloro-4-fluorophenyl)-5-cyanopicolinamide] was run?
Its pIC50 is 7.53.

And the IC50 (BACE)?
The IC50 was 0.0098 µM.

What about the pIC50 (Cathepsin D (Cat D)) of the same compound?
Its pIC50 is 3.52.

What does the source list for `COC[C@]1(c2cc(NC(=O)c3ccc(Cl)cn3)ccc2F)N=C(N)O[C@@H]2C[C@@H]21` [Example 82, N-(3-((1R,5S,6R)-3-amino-5-(methoxymethyl)-2-oxa-4-azabicyclo[4.1.0]hept-3-en-5-yl)-4-fluorophenyl)-5-chloropicolinamide]?
pIC50 [1]: 5.56; IC50 (BACE): 0.157 µM; pIC50 (Cathepsin D (Cat D)): < 3.40

How did the pIC50 [1] turn out when `NC1=N[C@@](c2cc(NC(=O)c3nn(C(F)F)cc3Cl)cc(F)c2F)(C(F)F)[C@H]2C[C@H]2O1` (stereo in doubt) [Example 110, N-(3-((1R,5S,6R)-3-amino-5-(difluoromethyl)-2-oxa-4-azabicyclo[4.1.0]hept-3-en-5-yl)-4,5-difluorophenyl)-4-chloro-1-(difluoromethyl)-1H-pyrazole-3-carboxamide] was run?
Its pIC50 is 4.58.

And the IC50 (BACE)?
The IC50 was > 17.4 µM.

And the pIC50 (Cathepsin D (Cat D))?
Its pIC50 is 2.83.

With `NC1=N[C@](CF)(c2cc(NC(=O)c3ccc(Br)cn3)cc(F)c2F)[C@H]2C[C@H]2O1` [Example 39, N-(3-((1R,5S,6R)-3-amino-5-(fluoromethyl)-2-oxa-4-azabicyclo[4.1.0]hept-3-en-5-yl)-4,5-difluorophenyl)-5-bromopicolinamide] as the compound, how does the pIC50 [1] read?
Its pIC50 is 7.33.

And the IC50 (BACE)?
Its IC50 is 0.0179 µM.

What about the pIC50 (Cathepsin D (Cat D)) of the same compound?
Its pIC50 is 3.96.

`COc1cnc(C(=O)Nc2ccc(F)c([C@@]3(C(F)F)N=C(N)O[C@@H]4C[C@@H]43)c2)cn1` [Example 72, N-(3-((1R,5S,6R)-3-amino-5-(difluoromethyl)-2-oxa-4-azabicyclo[4.1.0]hept-3-en-5-yl)-4-fluorophenyl)-5-methoxypyrazine-2-carboxamide] was tested. Which pIC50 [1] did it give?
The pIC50 was 7.12.

What about the IC50 (BACE) of the same compound?
Its IC50 is 0.0604 µM.

What about the pIC50 (Cathepsin D (Cat D)) of the same compound?
Its pIC50 is 2.95.

How did the pIC50 [1] turn out when `NC1=N[C@](c2cc(NC(=O)c3ccc(Cl)cn3)ccc2F)(C(F)F)[C@@H]2C[C@@H]2O1` (racemic) [Example 55, N-(3-([1(R,S),5(S,R),6(R,S)]-3-amino-5-(difluoromethyl)-2-oxa-4-azabicyclo[4.1.0]hept-3-en-5-yl)-4-fluorophenyl)-5-chloropicolinamide] was run?
Its pIC50 is 7.44.

What about the IC50 (BACE) of the same compound?
The IC50 was 0.0431 µM.

What about the pIC50 (Cathepsin D (Cat D)) of the same compound?
The pIC50 was 3.07.

`COc1cnc(C(=O)Nc2ccc(F)c([C@]3(C)N=C(N)O[C@H]4C[C@H]43)n2)cn1` [Example 323, N-(6-((1S,5R,6S)-3-amino-5-methyl-2-oxa-4-azabicyclo[4.1.0]hept-3-en-5-yl)-5-fluoropyridin-2-yl)-5-methoxypyrazine-2-carboxamide] was tested. Which pIC50 [1] did it give?
The pIC50 was < 4.40.

What about the IC50 (BACE) of the same compound?
Its IC50 is > 15.6 µM.

And the pIC50 (Cathepsin D (Cat D))?
The pIC50 was < 3.40.

`NC1=N[C@@](c2cc(NC(=O)c3c(F)cc(F)cc3F)ccc2F)(C(F)F)[C@H]2C[C@H]2O1` [Example 451, N-(3-((1R,5S,6R)-3-amino-5-(difluoromethyl)-2-oxa-4-azabicyclo[4.1.0]hept-3-en-5-yl)-4-fluorophenyl)-2,4,6-trifluorobenzamide] was tested. Which pIC50 [1] did it give?
The pIC50 was 5.27.

And the pIC50 (BACE)?
The pIC50 was 5.20.

What about the pIC50 (Cathepsin D (Cat D)) of the same compound?
Its pIC50 is 3.02.

What does the source list for `COc1ccc(C(=O)Nc2ccc(Cl)c([C@@]3(CF)N=C(N)O[C@@H]4C[C@@H]43)c2)nc1` [Example 282, N-(3-((1R,5S,6R)-3-amino-5-(fluoromethyl)-2-oxa-4-azabicyclo[4.1.0]hept-3-en-5-yl)-4-chlorophenyl)-5-methoxypicolinamide]?
pIC50 [1]: 6.71; IC50 (BACE): 0.0243 µM; pIC50 (Cathepsin D (Cat D)): 3.19

With `C[C@]1(c2cc(NC(=O)c3ccc(Cl)cn3)cnc2F)N=C(N)O[C@@H]2C[C@@H]21` [Example 334, N-(5-((1R,5S,6R)-3-amino-5-methyl-2-oxa-4-azabicyclo[4.1.0]hept-3-en-5-yl)-6-fluoropyridin-3-yl)-5-chloropicolinamide] as the compound, how does the pIC50 [1] read?
Its pIC50 is 7.03.

And the IC50 (BACE)?
Its IC50 is 0.0089 µM.

What about the pIC50 (Cathepsin D (Cat D)) of the same compound?
The pIC50 was 3.40.

`CS(=O)(=O)c1c(F)cc(NC(=O)c2ccc(Cl)cn2)cc1[C@@]1(CF)N=C(N)O[C@@H]2C[C@@H]21` (racemic) [Example 424, N-(3-(((1RS),(5S,R),(6R,S))-3-amino-5-(fluoromethyl)-2-oxa-4-azabicyclo[4.1.0]hept-3-en-5-yl)-5-fluoro-4-(methylsulfonyl)phenyl)-5-chloropicolinamide] was tested. Which pIC50 [1] did it give?
Its pIC50 is 5.99.

What about the pIC50 (BACE) of the same compound?
The pIC50 was 6.60.

And the pIC50 (Cathepsin D (Cat D))?
The pIC50 was 3.08.

With `Cc1ccc(C(=O)Nc2ccc(F)c([C@@]3(C(F)F)N=C(N)O[C@@H]4C[C@@H]43)c2)nc1` [Example 190, N-(3-((1R,5S,6R)-3-amino-5-(difluoromethyl)-2-oxa-4-azabicyclo[4.1.0]hept-3-en-5-yl)-4-fluorophenyl)-5-methylpicolinamide] as the compound, how does the pIC50 [1] read?
The pIC50 was 6.82.

And the IC50 (BACE)?
Its IC50 is 0.0735 µM.

And the pIC50 (Cathepsin D (Cat D))?
Its pIC50 is 2.83.
